Reference: patent US10889569B2, “Condensed ring group azacyclobutyl triazole derivative, preparation method therefor and use thereof in medicine” (Jiangsu Hengrui Medicine Co., Ltd., priority 2016, dated 2021)

Key:
human OTR = human OTR (Homo sapiens, UniProt P30559); experiment: Inhibition activity on human OTR (Fluo-4 calcium assay, HEK293/human OTR stably transfected cells); assay type: cell-based; conditions: oxytocin 3 nM
Procedure: The inhibition effect of the compounds of the present invention on the activity of human OTR protein expressed in HEK293/human OTR stably transfected cells was determined by the following experimental method:
The pcDNA3.1-hOTR plasmid was transferred into HEK293 cells with the Lipofectamine® 3000 transfection reagent; G418 was added on the next day to screen, and monoclonal cell lines were selected.
(§1) HEK293/human OTR stably transfected cells were inoculated in a 96-well plate with an inoculation density of 25,000 cells/well one day in advance. On the next day, a loading buffer containing Fluo-4 dye was formulated using the reagents in the Fluo-4 NW calcium assay kit, and the culture medium was then removed; 100 μl of the loading buffer containing Fluo-4 dye were added to each well, and the plate was incubated at 37° C. for 30 minutes. After that, the plate was moved to room temperature and equilibrated for 10 minutes. The compounds were formulated at 10^6, 10^5, 10^4, 10^3, 10^2 and 10^1 nM. 1 μl of the compounds in each concentration was added to each well, and the plate was incubated at room temperature for 10 minutes. 50 μl of oxytocin polypeptide (3 nM) were automatically added by the machine, and the values were immediately detected at 494/516 nM by the flexstation 3 microplate reader. IC50 values of the compounds were calculated by Graphpad prism software using fluorescence signals corresponding to different concentrations.
The inhibition activity of the compounds of the present invention on human OTR was determined by the above test, and the obtained IC50 values are shown in Table 1.

human V1aR = human V1aR (Homo sapiens (Human), UniProt P37288); experiment: Inhibition activity on human V1aR (Fluo-4 calcium assay, HEK293/human V1aR stably transfected cells); assay type: cell-based; conditions: vasopressin 3 nM
Procedure: The inhibition effect of the compounds of the present invention on the activity of human V1 aR protein expressed in HEK293/human V1aR stably transfected cells was determined by the following experimental method:
The pcDNA3.1-V1aR plasmid was transferred into HEK293 cells with the Lipofectamine® 3000 transfection reagent; G418 was added on the next day to screen, and monoclonal cell lines were selected.
as §1, with “V1aR” for “OTR”, “vasopressin” for “oxytocin”
The inhibition activity of the compounds of the present invention on human V1aR was determined by the above test, and the obtained IC50 values are shown in Table 2.

[1] = Pharmacokinetics assay in rats after intragastrical administration; assay type: in vivo, SD rats; conditions: Sprague-Dawley, rat, plasma, po, 30 mg/kg, intragastric, male rats; for Vd/F: read-out: Apparent distribution volume Vz/F; for AUC: read-out: Area under curve AUC; for CL/F: read-out: Clearance CLz/F; for half-life: read-out: Half-life T1/2 (converted); for Cmax: read-out: Plasma concentration Cmax; for MRT: read-out: Residence time MRT
Procedure: Male SD rats were used as test animals. The drug concentration in plasma at different time points was determined by LC/MS/MS method after intragastrical administration of the compounds of Examples 2, 17, 34, 37, 38, 39 and 43 to rats. The pharmacokinetic behavior of the compounds of the present invention was studied and evaluated in rats.
Twenty-one healthy adult male Sprague-Dawley (SD) rats were purchased from Shanghai Jiesijie Laboratory Animal Co., LTD, with Certificate No.: SCXK (Shanghai) 2013-0006, and equally divided into 7 groups (3 rats per group).
A certain amount of the test compound was weighed, and added with 2.5% by volume of DMSO and 97.5% by volume of 10% solutol HS-15 to formulate a […] colorless, clear and transparent solution.
After an overnight fast, SD rats were administered intragastrically the test compounds at an administration dosage of 30.0 mg/kg and an administration volume of 10.0 mL/kg.
The rats were intragastrically administered the compounds of Examples 2, 17, 34, 37, 38, 39 and 43. 0.2 mL of blood was taken from the orbital sinus before administration and at 0.5, 1.0, 2.0, 4.0, 6.0, 8.0, 11.0 and 24.0 hours after administration. The samples were stored in heparinized tubes, and centrifuged for 10 minutes at 4° C. at 3500 rpm to separate the plasma. The plasma samples were stored at −20° C. The rats were fed 2 hours after administration.
The content of the test compounds in the plasma of rats after intragastrical administration of the test compounds at different concentrations was determined: 50 μL of rat plasma at each time after administration was taken, added with 50 μL of the internal standard solution of camptothecin (100 ng/mL) and 150 μL of acetonitrile, vortex-mixed for 5 minutes, and centrifuged for 10 minutes (4000 rpm). 3 μL of the supernatant was taken from the plasma samples for LC/MS/MS analysis.

Chain of human V1aR (P37288 whole entry): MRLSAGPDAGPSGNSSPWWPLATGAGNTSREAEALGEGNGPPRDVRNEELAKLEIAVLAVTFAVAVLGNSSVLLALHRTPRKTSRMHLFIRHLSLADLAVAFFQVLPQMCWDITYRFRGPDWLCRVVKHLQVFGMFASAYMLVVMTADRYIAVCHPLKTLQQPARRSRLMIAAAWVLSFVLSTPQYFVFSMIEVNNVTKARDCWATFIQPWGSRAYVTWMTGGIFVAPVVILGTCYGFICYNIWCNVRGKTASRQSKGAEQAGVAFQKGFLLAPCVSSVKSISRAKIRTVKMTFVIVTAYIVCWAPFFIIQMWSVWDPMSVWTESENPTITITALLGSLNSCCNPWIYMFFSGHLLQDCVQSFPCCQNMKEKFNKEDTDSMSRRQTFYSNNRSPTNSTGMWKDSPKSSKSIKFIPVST

IC50 (human OTR) | IC50 (human V1aR) | Vd/F [1] | AUC [1] | CL/F [1] | half-life [1] | Cmax [1] | MRT [1] | Structure (SMILES)
0.041 µM | 2 µM |  |  |  |  |  |  | COCc1nnc(N2CC(N3CCCc4c(F)cccc43)C2)n1-c1ccc(OC)nc1 [Example 19, 5-Fluoro-1-(1-(5-(methoxymethyl)-4-(6-methoxypyridin-3-yl)-4H-1,2,4-triazol-3-yl)azetidin-3-yl)-1,2,3,4-tetrahydroquinoline]
0.104 µM | 3.1 µM |  |  |  |  |  |  | COc1ccc(-n2c(C)nnc2N2CC(N3CCCc4c(F)cccc43)C2)cn1 [Example 20, 5-Fluoro-1-(1-(4-(6-methoxypyridin-3-yl)-5-methyl-4H-1,2,4-triazol-3-yl)azetidin-3-yl)-1,2,3,4-tetrahydroquinoline]
0.177 µM | 7.5 µM |  |  |  |  |  |  | COCc1nnc(N2CC(N3CCOc4c(F)cccc43)C2)n1-c1ccc(OC)nc1 [Example 22, 8-Fluoro-4-(1-(5-(methoxymethyl)-4-(6-methoxypyridin-3-yl)-4H-1,2,4-triazol-3-yl)azetidin-3-yl)-3,4-dihydro-2H-benzo[b][1,4]oxazine]
0.231 µM | 2.4 µM |  |  |  |  |  |  | COCc1nnc(N2CC(N3CCCc4cc(F)ccc43)C2)n1-c1ccc2c(c1)OCO2 [Example 28, 1-(1-(4-(Benzo[d][1,3]dioxolan-5-yl)-5-(methoxymethyl)-4H-1,2,4-triazol-3-yl)azetidin-3-yl)-6-fluoro-1,2,3,4-tetrahydroquinoline]
0.008 µM |  | 17.8 ± 3.33 L/kg | 5330 ± 981 ng·h/mL | 95.8 ± 16 mL/min/kg | 2.16 ± 0.345 h | 1070 ± 252 ng/mL | 3.84 ± 1.08 h | COc1ccc(-n2c(COC(F)F)nnc2N2CC(n3cc(C)c4cc(F)ccc43)C2)cn1 [Example 34, 1-(1-(5-((Difluoromethoxy)methyl)-4-(6-methoxypyridin-3-yl)-4H-1,2,4-triazol-3-yl)azetidin-3-yl)-5-fluoro-3-methyl-1H-indole]
0.181 µM | 14.1 µM |  |  |  |  |  |  | COc1ccc(-n2c(C(F)F)nnc2N2CC(N3CCOc4cc(F)ccc43)C2)cn1 [Example 35, 4-(1-(5-(Difluoromethyl)-4-(6-methoxypyridin-3-yl)-4H-1,2,4-triazol-3-yl)azetidin-3-yl)-7-fluoro-3,4-dihydro-2H-benzo[b][1,4]oxazine]
0.124 µM | 2.1 µM |  |  |  |  |  |  | COC(=O)NCc1nnc(N2CC(N3CCCc4cc(F)ccc43)C2)n1-c1ccc(OC)nc1 [Example 36, Methyl ((5-(3-(6-fluoro-3,4-dihydroquinolin-1(2H)-yl)azetidin-1-yl)-4-(6-methoxypyridin-3-yl)-4H-1,2,4-triazol-3-yl)methyl)carbamate]
0.004 µM | 1.7 µM | 56.3 ± 66 L/kg | 8180 ± 9850 ng·h/mL | 201 ± 223 mL/min/kg | 2.95 ± 0.42 h | 1120 ± 950 ng/mL | 4.9 ± 1.36 h | COc1ccc(-n2c(COC(F)F)nnc2N2CC(N3CCOc4cc(F)ccc43)C2)cn1 [Example 37, 4-(1-(5-((Difluoromethoxy)methyl)-4-(6-methoxypyridin-3-yl)-4H-1,2,4-triazol-3-yl)azetidin-3-yl)-7-fluoro-3,4-dihydro-2H-benzo[b][1,4]oxazine]
0.006 µM | 2 µM | 35 ± 3.01 L/kg | 3830 ± 83.7 ng·h/mL | 131 ± 2.85 mL/min/kg | 3.09 ± 0.199 h | 1200 ± 68.5 ng/mL | 3.61 ± 0.022 h | COc1ccc(-n2c(N3CC(N4CCCc5cc(F)ccc54)C3)nnc2C(F)(F)F)cn1 [Example 39, 6-Fluoro-1-(1-(4-(6-methoxypyridin-3-yl)-5-(trifluoromethyl)-4H-1,2,4-triazol-3-yl)azetidin-3-yl)-1,2,3,4-tetrahydroquinoline]
0.15 µM | 9 µM |  |  |  |  |  |  | COc1ccc(-n2c(CO)nnc2N2CC(c3cccc4cc(F)ccc34)C2)cn1 [Example 41, (5-(3-(6-Fluoronaphthalen-1-yl)azetidin-1-yl)-4-(6-methoxypyridin-3-yl)-4H-1,2,4-triazol-3-yl)methanol]
0.023 µM | 4.5 µM |  |  |  |  |  |  | COCc1nnc(N2CC(N3CCC(C)(C)c4cc(F)ccc43)C2)n1-c1ccc(OC)nc1 [Example 42, 6-Fluoro-1-(1-(5-(methoxymethyl)-4-(6-methoxypyridin-3-yl)-4H-1,2,4-triazol-3-yl)azetidin-3-yl)-4,4-dimethyl-1,2,3,4-tetrahydroquinoline]
0.015 µM | 7.9 µM | 31.1 ± 19.3 L/kg | 5560 ± 2330 ng·h/mL | 3.81 ± 0.12 mL/min/kg | 3.31 ± 0.23 h | 1580 ± 601 ng/mL |  | COc1ccc(-n2c(N3CC(N4CCOc5cc(F)ccc54)C3)nnc2C(F)(F)F)cn1 [Example 43, 7-Fluoro-4-(1-(4-(6-methoxypyridin-3-yl)-5-(trifluoromethyl)-4H-1,2,4-triazol-3-yl)azetidin-3-yl)-3,4-dihydro-2H-benzo[b][1,4]oxazine]
